How the values were obtained:
Format in all cases: in vivo
[1] = system: Monocotyledonous and dicotyledonous test plants; experiment: Example B2 herbicidal action, application pre-emergence, 96-cell seed trays (Table B2b); settings: 1000 g/ha
Method: Monocotyledonous and dicotyledonous test plants were sown in sterilised standard soil in seed trays each having 96 cells. After one day (pre-emergence) or after 8 to 9 days cultivation (post-emergence) under controlled conditions in a climatic chamber (cultivation at 17/23° C.; 13 hours light; 50-60% humidity; after application at 19/24° C.), the plants were treated with an aqueous spray solution of 1000 mg/l of the active ingredient used (rate of application: […]; incl. 10% DMSO as solvent). The plants were grown on in the climatic chamber until the test was evaluated (10 total damage to plant, 0=no damage to plant) after 9 or 13 days.

[2] = system: Monocotyledonous and dicotyledonous test plants; experiment: Example B1 herbicidal action, application post-emergence (Table B1a); settings: 250 g/ha, evaluated after 3 weeks, scale 0-10
Method in brief: (§1)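 Visual damage rating, 10 = plant dead and 0 = unharmed, taken at 3 weeks for post-emergence and 4 weeks for pre-emergence treatment. Application by spray of formulated aqueous solution either immediately after sowing or at 8–9 days' growth, with mono- and dicot plants kept in a greenhouse.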

[3] = system: Monocotyledonous and dicotyledonous test plants; experiment: Example B1 herbicidal action, application pre-emergence (Table B1b); settings: 250 g/ha, evaluated after 4 weeks
Method in brief: as §1

SMILES | herbicidal action (damage rating 0-10), Agrostis [1] | herbicidal action (damage rating 0-10), Digitaria [1] | herbicidal action (damage rating 0-10), Poa [1] | herbicidal action (damage rating 0-10), Setaria [1] | herbicidal damage rating, Abutilon [2] | herbicidal damage rating, Amaranthus [2] | herbicidal damage rating, Digitaria [2] | herbicidal damage rating, Panicum [2] | herbicidal damage rating, Setaria [2] | herbicidal damage rating, Sida [2] | herbicidal action (damage rating 0-10), Amaranthus [3] | herbicidal action (damage rating 0-10), Digitaria [3] | herbicidal action (damage rating 0-10), Panicum [3] | herbicidal action (damage rating 0-10), Setaria [3] | herbicidal action (damage rating 0-10), Sida [3]
CC1(C)CC(S(=O)(=O)C2(c3c(F)cccc3F)CC2(Cl)Cl)=NO1 (centres unmarked) [Compound No. 1.45, 3-[2,2-dichloro-1-(2,6-difluoro-phenyl)-cyclopropanesulfonyl]-5,5-dimethyl-4,5-dihydroisoxazole] | 7 | 8 | 10 | 6 | – | – | – | – | – | – | – | – | – | – | –
CCOC(=O)CCC(c1c(F)cccc1F)S(=O)(=O)C1=NOC(C)(C)C1 (centres unmarked) [Compound No. 1.08, 4-(2,6-difluoro-phenyl)-4-(5,5-dimethyl-4,5-dihydroisoxazole-3-sulfonyl)-butyric acid ethyl ester] | 7 | 8 | 9 | 3 | – | – | – | – | – | – | – | – | – | – | –
COCC(=O)OC(COC)=C(c1c(F)cccc1F)S(=O)(=O)C1=NOC(C)(C)C1 [1.100] | 5 | 7 | 9 | 3 | – | – | – | – | – | – | – | – | – | – | –
Cn1nc(C(F)(F)F)c(C(F)S(=O)(=O)C2=NOC(C)(C)C2)c1Cl (centres unmarked) [2.02] | 10 | 9 | 10 | 10 | – | – | – | – | – | – | – | – | – | – | –
COCC(=O)C(c1c(F)cccc1F)S(=O)(=O)C1=NOC(C)(C)C1 (centres unmarked) [Compound No. 1.59] | 9 | 8 | 10 | 9 | – | – | – | – | – | – | – | – | – | – | –
CC1(C)CC(S(=O)(=O)C(F)(Cl)c2ccccc2)=NO1 (racemic) [1.75] | – | – | – | – | 5 | 3 | 8 | 5 | 5 | 4 | 10 | 10 | 10 | 10 | 7
CC1(C)CC(S(=O)(=O)C(F)(Cl)c2ccccc2C(F)(F)F)=NO1 (racemic) [1.95] | – | – | – | – | 0 | 0 | 8 | 7 | 3 | 2 | 7 | 10 | 10 | 10 | 7
CC1(C)CC(S(=O)(=O)C2(c3c(F)cccc3F)CC2[N+](=O)[O-])=NO1 (centres unmarked) [1.48] | 10 | 9 | 10 | 8 | – | – | – | – | – | – | – | – | – | – | –
CC1(C)CC(S(=O)(=O)C(F)(F)c2cc(F)cc(F)c2)=NO1 [1.115] | – | – | – | – | 2 | 5 | 8 | 8 | 7 | 0 | 10 | 10 | 10 | 10 | 8
CC1(C)CC(S(=O)(=O)C(Cl)c2ccccc2OC(F)(F)F)=NO1 (centres unmarked) [1.143] | – | – | – | – | 3 | 7 | 7 | 7 | 6 | 2 | 7 | 10 | 10 | 10 | 7
CC1(C)CC(S(=O)(=O)C(F)(F)c2ccccc2SC(F)(F)F)=NO1 [1.70] | – | – | – | – | 5 | 2 | 8 | 5 | 7 | 5 | 10 | 10 | 10 | 10 | 8
C=C(OC(C)=O)C(F)(c1c(F)cccc1F)S(=O)(=O)C1=NOC(C)(C)C1 (racemic) [Compound No. 1.62] | – | – | – | – | 4 | 2 | 7 | 8 | 6 | 5 | 10 | 9 | 10 | 10 | 8
Cn1nc(C(F)(F)F)c(C(Cl)(Cl)S(=O)(=O)C2=NOC(C)(C)C2)c1OC(F)F [2.15] | – | – | – | – | 4 | 0 | 6 | 2 | 4 | 4 | 10 | 10 | 10 | 10 | 8
Cc1ccc(F)c(C(F)(F)S(=O)(=O)C2=NOC(C)(C)C2)c1F [1.108] | – | – | – | – | 7 | 8 | 8 | 5 | 5 | 8 | 10 | 10 | 10 | 10 | 9
CC1(C)CC(S(=O)(=O)C(Br)c2c(F)cccc2C(F)(F)F)=NO1 (racemic) [1.80] | – | – | – | – | 4 | 0 | 8 | 5 | 7 | 5 | 10 | 10 | 10 | 10 | 9
Cn1nc(C(F)(F)F)c(C(F)(F)S(=O)(=O)C2=NOC(C)(C)C2)c1OCC(F)(F)F [2.01] | – | – | – | – | 8 | 5 | 7 | 5 | 5 | 6 | 10 | 10 | 10 | 10 | 9
Cc1ccccc1C(F)(F)S(=O)(=O)C1=NOC(C)(C)C1 [1.92] | – | – | – | – | 5 | 3 | 8 | 5 | 7 | 7 | 10 | 10 | 10 | 10 | 8
CCOC(=O)c1ccc(C(F)(F)S(=O)(=O)C2=NOC(C)(C)C2)c(F)c1 [1.120] | – | – | – | – | 7 | 0 | 8 | 3 | 4 | 0 | 8 | 6 | 8 | 0 | 5
CC1(C)CC(S(=O)(=O)C(F)(F)c2ccccc2OC(F)F)=NO1 [1.66] | – | – | – | – | 8 | 5 | 8 | 5 | 7 | 5 | 10 | 10 | 10 | 10 | 9
